Experimental data from patent US7714014B2, “Targeting GLI proteins in human cancer by small molecules” (The Regents of the University of California, priority 2005, dated 2010).
“Also recorded” adds a separate entry of the source.

What was measured:
[1] = system: hedgehog pathway in HT29 cells; assay: Semi-quantitative RT-PCR of Hedgehog pathway genes; format: cell-based, human; conditions: data not shown
Method: Total RNA from cell lines or tissue samples was isolated using Qiagen RNeasy Mini Kit (Valencia, Calif.). RT-PCR was performed in GeneAmp PCR system 2700 (Applied Biosystems, Foster City, Calif.) using One-step RT-PCR Kit from Invitrogen Life Technologies (Carlsbad, Calif.). Primers for RT-PCR were obtained from Operon Technologies Inc. (Alameda, Calif.). Primer sequences for amplifying different genes in Hedgehog and Wnt signaling pathways are listed in the table below (Table 1; F, forward primer; R, reverse primer). The expected size of the PCR product is indicated for each primer pair. GAPDH was used as internal control.

[2] = system: CFPAC-1 (pancreatic cancer); assay: Apoptosis analysis (Annexin V FITC, flow cytometry); format: cell-based, human; conditions: 3 days
Method: (§1) Apoptosis was analyzed by using an Annexin V FITC Apoptosis Detection Kit (Biosource, Camarillo, Calif.), according to the manufacturer's protocol. After treatment with different small molecule compounds at various concentrations for about 3 days, cells were harvested by trypsinization, stained and immediately analyzed by flow cytometry (FACScan; Decton Dickinson, Franklin Lake, N.J.). Early apoptotic cells with exposed phosphatidylserine but intact cell membranes will bind to Annexin V-FITC, but not propidium iodide (PI). Cells in necrotic or late apoptotic stages will be labeled with both Annexin V-FITC and PI. “% apoptotic cells” or “% apoptosis” refers to the combined early and late apoptotic cells.
Flow cytometry was also used to examine apoptosis induced by molecule compounds FN1-5 and FN1-8 in the human pancreatic cancer cell lines L3.6sl, Panc4.21, BxPC3, and CFPAC-1 cells. […] For example, app.

[3] = system: Normal renal cells; assay: as above; format: cell-based, human
Method: as §1
In addition, apoptosis induction after the treatment of different doses of FN1-5 (30 and 50 μM) or FN1-8 (10, 30, and 50 μM) in normal human renal cells was examined by flow cytometry.

[4] = system: human breast cancer cell line MCF-7; assay: Cell survival assay (crystal violet); format: cell-based; conditions: for cell killing: MCF-7, 50 μM
Method: Typically, the small molecule compounds of the present invention were dissolved in DMSO at a concentration of 30 mM. The small molecule compounds were then tested under cell culture conditions at different concentrations ranging from 0, 10, 30, 50, to 100 uM. To determine cell survival after treatment, the cells were incubated with the small molecule compounds in 6-well plates for about 3 days. After removal of the cell culture medium, 1-ml of 0.5% crystal violet solution (prepared in 20% ethanol and 20% methanol) was added to stain the cells for 5 min. Then the crystal violet solution was rinsed clean with tap water. Cell survival was estimated based on the density of crystal stained plates.
The cell-based cytotoxicity assay described herein was used to determine the effect of small molecule compounds FN1-5 and FN1-8 in the human breast cancer cell line MCF-7. Viability of MCF-7 cells was analyzed after treatment with 30 and 50 μM FN1-5 and after treatment with 10, 30, and 50 μM FN1-8.

[5] = system: human SOCS3 promoter in NSCLC cell line A549; assay: SOCS3 promoter-luciferase reporter assay; format: cell-based; conditions: A549, 30 μM, 18-24 hours
Method: One day before transfection, cells (1×10^5) were plated in 12-well plates with growth medium without antibiotics. When cells reached 80-90% of confluence they were co-transfected using 0.5 μg of each promoter construct in pGL3Basic vector and 0.025 μg pRL-TK Vector (Promega; Madison, Wis.) containing Renilla Luciferase as an internal control for the transformation efficiency. Lipofectamine 2000™ (Invitrogen Life Technologies) was used to mediate transfection for about 6 hours. Then the medium was replaced with fresh medium containing various small molecule compounds at a concentration of 30 μM, and the resulting cells were cultured for an additional 18-24 hours and subjected to luciferase assay. Briefly, cells were lysed in a lysis buffer and Firefly and Renilla Luciferase activities in cells of each well, were measured using Dual-Luciferase Assay System (Promega) and an illuminometer. The measured luciferase activities were normalized to pRL-TK Vector activity and were given relative to the basal activity of empty pGL3-Basic Vector, which was set to unity. The data shown represent mean values (±S.D.). All measurements were performed in triplicate and repeated in at least three independent experiments. The human Wnt-2 promoter-luciferase construct, the human SOCS3 promoter-Luciferase construct and the human Gremlin promoter-luciferase construct were cloned and characterized in the laboratory of Dr. Jablons at the University of California, San Francisco (San Francisco, Calif.; He et al., Biochem Biophy Res Comm, 2003; and unpublished data). The 6GLI-TKO-luciferase construct (containing 6 repeats of consensus GLI DNA binding sequence) was kindly provided by Dr. Matthias Hebrok's laboratory at the University of California, San Francisco (San Francisco, Calif.).
As a third specificity test for the small molecule compounds of the present invention, the ability of these compounds to regulate the expression of genes that are not down-stream targets of the Gli activation was analyzed. SOCS3, an inhibitor and down-stream target gene of JAK/STAT pathway was chosen for this experiment. Expression of SOCS3 is not under control of Gli and/or Wnt activation. Furthermore, no GLI and TCF binding sites were found in the human SOCS3 promoter cloned in the laboratory of Dr. Jablons (University of California, San Francisco; data not shown). Thus, SOCS3 promoter-luciferase reporter activity was measured after the treatment of the NSCLC cell line A549 with small molecule compounds FN1-5, FN1-7, FN1-8, and FN1-9U.

[6] = system: Normal muscle cells; assay: Apoptosis analysis (Annexin V FITC, flow cytometry); format: cell-based, human; conditions: 3 days
Method: as §1
In addition, apoptosis induction after the treatment of different doses of FN1-5 or FN1-8 in normal human muscle cells was examined by flow cytometry. Normal muscle cells were plated in 6-well plates and incubated with 1, 10, 30, and 50 μM of each compound for 3 days, as above.

[7] = system: A549 (NSCLC); assay: as above; format: cell-based, human; conditions: 3 days
Method: as §1
Flow cytometry was also used to examine apoptosis in several NSCLC cell lines after treatment with small molecule compounds of the invention.
Dose titration experiments of small molecule compound FN1-8 was performed using the NSCLC cell lines A549, H358, and H322. A 549, H358, and H322 cells were plated in 6-well plates and incubated with DM SO (control) or 7.5 μM, 10 μM, 15 μM, 20 μM, and 30 μM of FN1-8, respectively, for 3 days. A dramatic and dose-dependent cell killing in these cell lines was observed when FN1-8 was added at 15 μM or more. FN1-8 induced cell killing in A549 and […] at slightly lower concentrations than in H322 cells (data not shown). After 3 days, approximately 28% of the A549 cells and 58% of H358 underwent apoptosis when incubated with 20 μM FN1-8 (Table 3).

## O=C(NCCCCCO)C1C(c2ccccc2)=NN(c2ccccc2)C1c1ccccc1 (centres unmarked) [FN1-5, N-(5-Hydroxypentyl)-1,3,5-triphenyl-4,5-dihydro-pyrazole-4-carboxyamide]
[1]
  modulation of hedgehog pathway (RT-PCR): no noticeable changes
[2]; CFPAC-1, 30 μM
  % of apoptotic cells: 17.4%
[2]; CFPAC-1, 50 μM
  % of apoptotic cells: 30.6%
[3]; 30 μM
  % of apoptotic cells: 5.6%
[3]; 50 μM
  % of apoptotic cells: 6.6%
[4]
  cell killing: dramatic cell killing
[5]
  SOCS3 promoter activity: inactive; also recorded: do not regulate SOCS3 promoter activity
[6]; 10 μM
  % of apoptotic cells: 7.5%
[6]; 30 μM
  % of apoptotic cells: 7.6%
[6]; 50 μM
  % of apoptotic cells: 8.8%
[7]; A549, 10 μM
  % of apoptotic cells: 9.4%
[7]; A549, 100 μM
  % of apoptotic cells: 30.0%

## O=C(NCCc1ccc(O)cc1)C1C(c2ccccc2)=NN(c2ccccc2)C1c1ccccc1 (centres unmarked) [FN1-8, N-(2-(4-Hydroxyphenyl)ethyl)-1,3,5-triphenyl-4,5-dihydro-pyrazole-4-carboxyamide]
[1]
  modulation of hedgehog pathway (RT-PCR): no noticeable changes
[2]; CFPAC-1, 10 μM
  % of apoptotic cells: 15.4%
[2]; CFPAC-1, 30 μM
  % of apoptotic cells: 15.0%
[2]; CFPAC-1, 50 μM
  % of apoptotic cells: 19.8%
[3]; 10 μM
  % of apoptotic cells: 3.1%
[3]; 30 μM
  % of apoptotic cells: 4.1%
[3]; 50 μM
  % of apoptotic cells: 6.2%
[4]; MCF-7
  cell killing potency compared with FN1-5: more potent
[4]
  cell killing: dramatic cell killing
[5]
  SOCS3 promoter activity: inactive; also recorded: do not regulate SOCS3 promoter activity
[6]; 10 μM
  % of apoptotic cells: 7.8%
[6]; 30 μM
  % of apoptotic cells: 9.3%
[6]; 50 μM
  % of apoptotic cells: 9.7%
[7]; A549, 10 μM
  % of apoptotic cells: 12.5%
